Results on one molecule are retold here after PMC7316778 (Nature Communications, 2020).

As a reminder, the Inhibition is the change of the read-out against control, counted positive when it falls. Broadly, the inhibition is how much of the control response was suppressed.

Test in all cases: SelectScreen kinase assay
One test deals with T1, PKMYT1 (Homo sapiens, UniProt Q99640).
T1 sequence (Q99640 1-499): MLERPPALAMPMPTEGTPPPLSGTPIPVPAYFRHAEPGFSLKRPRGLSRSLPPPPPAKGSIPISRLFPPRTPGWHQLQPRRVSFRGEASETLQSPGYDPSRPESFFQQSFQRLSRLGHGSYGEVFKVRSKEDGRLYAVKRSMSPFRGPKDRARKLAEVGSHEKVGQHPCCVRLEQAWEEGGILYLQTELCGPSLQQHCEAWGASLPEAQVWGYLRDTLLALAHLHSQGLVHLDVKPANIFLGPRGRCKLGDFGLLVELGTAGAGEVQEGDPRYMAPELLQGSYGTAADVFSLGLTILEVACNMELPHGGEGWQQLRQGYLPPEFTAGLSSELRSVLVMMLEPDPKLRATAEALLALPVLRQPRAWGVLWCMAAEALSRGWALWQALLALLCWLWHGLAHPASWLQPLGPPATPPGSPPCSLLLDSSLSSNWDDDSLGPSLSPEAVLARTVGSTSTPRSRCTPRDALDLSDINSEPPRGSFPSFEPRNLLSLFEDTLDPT

In a further test the target is T2, MAPK12 (p38 gamma) (Homo sapiens, UniProt P53778).
T2 sequence (P53778 1-367): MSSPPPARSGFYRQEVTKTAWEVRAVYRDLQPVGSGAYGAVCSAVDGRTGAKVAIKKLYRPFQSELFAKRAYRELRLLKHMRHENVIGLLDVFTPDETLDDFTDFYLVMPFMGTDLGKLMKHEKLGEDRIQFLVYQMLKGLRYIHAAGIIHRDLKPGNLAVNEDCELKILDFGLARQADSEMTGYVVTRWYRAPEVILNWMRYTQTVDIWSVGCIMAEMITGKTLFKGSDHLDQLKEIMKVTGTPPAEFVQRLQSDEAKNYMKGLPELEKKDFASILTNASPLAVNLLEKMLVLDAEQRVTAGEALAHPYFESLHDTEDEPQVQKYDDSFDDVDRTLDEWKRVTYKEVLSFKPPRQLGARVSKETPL

The target in another test is T3, DCAMKL2 (DCK2) (Homo sapiens, UniProt Q8N568).
T3 sequence (Q8N568 1-766): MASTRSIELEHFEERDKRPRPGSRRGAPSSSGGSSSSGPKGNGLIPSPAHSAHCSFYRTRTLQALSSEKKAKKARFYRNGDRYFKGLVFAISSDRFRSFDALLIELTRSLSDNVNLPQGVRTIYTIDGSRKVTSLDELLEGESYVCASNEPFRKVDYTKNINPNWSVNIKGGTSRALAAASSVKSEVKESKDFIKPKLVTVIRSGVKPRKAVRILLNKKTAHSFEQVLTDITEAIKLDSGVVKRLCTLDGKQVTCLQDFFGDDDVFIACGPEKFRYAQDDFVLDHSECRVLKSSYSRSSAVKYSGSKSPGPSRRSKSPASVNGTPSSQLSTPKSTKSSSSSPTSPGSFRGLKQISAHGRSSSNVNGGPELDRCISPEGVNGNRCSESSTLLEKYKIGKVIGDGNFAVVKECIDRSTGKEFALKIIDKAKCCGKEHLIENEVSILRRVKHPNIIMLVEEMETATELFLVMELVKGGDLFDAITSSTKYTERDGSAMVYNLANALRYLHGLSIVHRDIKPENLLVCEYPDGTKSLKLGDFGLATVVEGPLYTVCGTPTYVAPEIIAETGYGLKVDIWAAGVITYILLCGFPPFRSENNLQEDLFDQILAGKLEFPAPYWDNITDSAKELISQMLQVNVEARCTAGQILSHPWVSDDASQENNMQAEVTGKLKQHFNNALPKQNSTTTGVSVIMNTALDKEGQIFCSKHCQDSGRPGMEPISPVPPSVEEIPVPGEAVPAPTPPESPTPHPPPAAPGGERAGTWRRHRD

Another test deals with T4, MUSK (Homo sapiens, UniProt O15146).
T4 sequence (O15146 24-869): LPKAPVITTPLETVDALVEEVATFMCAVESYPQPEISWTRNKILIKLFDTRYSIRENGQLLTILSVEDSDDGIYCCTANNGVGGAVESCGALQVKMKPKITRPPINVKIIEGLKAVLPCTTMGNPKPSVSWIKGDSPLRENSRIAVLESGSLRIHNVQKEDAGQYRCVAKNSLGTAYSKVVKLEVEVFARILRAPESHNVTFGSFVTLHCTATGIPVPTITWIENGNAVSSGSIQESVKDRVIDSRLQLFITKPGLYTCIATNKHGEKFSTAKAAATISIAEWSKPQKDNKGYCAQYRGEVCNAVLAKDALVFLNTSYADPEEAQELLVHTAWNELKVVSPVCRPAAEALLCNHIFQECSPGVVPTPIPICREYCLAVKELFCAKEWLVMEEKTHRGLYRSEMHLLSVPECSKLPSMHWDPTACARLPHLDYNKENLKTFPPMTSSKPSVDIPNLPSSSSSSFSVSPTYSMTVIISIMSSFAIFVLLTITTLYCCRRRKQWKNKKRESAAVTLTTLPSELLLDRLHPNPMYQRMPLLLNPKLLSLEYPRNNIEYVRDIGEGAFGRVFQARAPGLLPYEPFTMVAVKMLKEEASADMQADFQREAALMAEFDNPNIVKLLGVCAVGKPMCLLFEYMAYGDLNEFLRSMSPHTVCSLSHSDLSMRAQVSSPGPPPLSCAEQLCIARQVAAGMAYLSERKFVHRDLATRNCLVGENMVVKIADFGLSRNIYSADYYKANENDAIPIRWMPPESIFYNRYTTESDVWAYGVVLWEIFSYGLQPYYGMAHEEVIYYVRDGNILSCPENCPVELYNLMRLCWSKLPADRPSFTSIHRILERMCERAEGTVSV

For the next test, the target named is MAP3K19 (YSK4) (Homo sapiens, UniProt Q56UN5).
The mark [1] stands for this setting: 1 h, 1 μM WEL028, 1 h preincubation.

The structures appear in SMILES notation. Values joined by “and” are separate entries in the source; they are usually repeats but may differ in a detail not shown here. Identical values can stand only once. Like-named read-outs stand apart in the source and are kept apart here.

Chain of MAP3K19 (YSK4) (Q56UN5 whole entry): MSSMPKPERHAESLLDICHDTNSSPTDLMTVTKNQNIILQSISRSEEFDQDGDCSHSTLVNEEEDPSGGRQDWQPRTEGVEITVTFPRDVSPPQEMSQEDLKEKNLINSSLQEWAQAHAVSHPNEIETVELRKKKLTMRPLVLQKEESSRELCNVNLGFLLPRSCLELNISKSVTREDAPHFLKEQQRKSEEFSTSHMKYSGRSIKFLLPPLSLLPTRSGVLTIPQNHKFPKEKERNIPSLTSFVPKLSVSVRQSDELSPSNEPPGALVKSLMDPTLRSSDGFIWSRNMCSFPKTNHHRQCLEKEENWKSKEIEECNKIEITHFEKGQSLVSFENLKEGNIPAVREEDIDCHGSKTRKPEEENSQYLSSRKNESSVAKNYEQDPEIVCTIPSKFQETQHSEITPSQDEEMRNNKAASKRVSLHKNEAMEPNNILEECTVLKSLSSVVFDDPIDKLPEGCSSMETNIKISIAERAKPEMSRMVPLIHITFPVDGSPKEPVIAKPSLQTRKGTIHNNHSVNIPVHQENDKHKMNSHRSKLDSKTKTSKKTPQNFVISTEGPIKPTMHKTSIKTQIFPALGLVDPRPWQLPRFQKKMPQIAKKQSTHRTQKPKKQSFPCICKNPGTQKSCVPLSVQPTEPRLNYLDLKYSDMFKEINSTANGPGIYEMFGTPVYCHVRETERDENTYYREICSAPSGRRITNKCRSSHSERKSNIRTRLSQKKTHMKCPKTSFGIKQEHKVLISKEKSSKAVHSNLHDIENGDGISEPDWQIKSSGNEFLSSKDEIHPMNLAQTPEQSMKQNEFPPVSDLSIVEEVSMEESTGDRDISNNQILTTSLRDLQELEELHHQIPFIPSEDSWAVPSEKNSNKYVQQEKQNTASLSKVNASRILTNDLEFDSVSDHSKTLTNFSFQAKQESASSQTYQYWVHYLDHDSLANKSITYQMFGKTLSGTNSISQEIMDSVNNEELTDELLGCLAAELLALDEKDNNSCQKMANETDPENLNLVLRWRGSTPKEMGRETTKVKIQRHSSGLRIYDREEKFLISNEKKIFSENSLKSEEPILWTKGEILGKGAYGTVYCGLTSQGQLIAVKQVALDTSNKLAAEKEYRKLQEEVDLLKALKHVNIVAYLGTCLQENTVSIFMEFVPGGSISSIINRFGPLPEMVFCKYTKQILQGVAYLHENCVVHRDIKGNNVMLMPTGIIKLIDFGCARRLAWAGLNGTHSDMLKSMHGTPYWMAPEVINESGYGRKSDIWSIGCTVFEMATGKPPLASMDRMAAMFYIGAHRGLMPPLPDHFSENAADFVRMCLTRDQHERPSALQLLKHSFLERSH
Procedure for DCAMKL2 (DCK2): (§1) Selectivity profiling assays were performed by the Invitrogen SelectScreen™ Services. […] The concentration of ATP was selected to be equal to the KM, unless indicated otherwise.
Procedure for MAP3K19 (YSK4): as §1
Procedure for MAPK12 (p38 gamma): as §1
Procedure for MUSK: as §1
Procedure for PKMYT1: as §1

With `C#CCOc1ccc(Nc2ncc(Cl)c(Nc3ccccc3NC(=O)C=C)n2)c(OC)c1` [Compound 6], the “Inhibition (%)” value on PKMYT1 (1 μM WEL028, 1 h preincubation) was determined as 13%. For the same molecule, the “Inhibition at 1 µM (%)” value at PKMYT1 (PKMYT1, 1 µM, LanthaScreen Binding, listed as WEL028, 1 µM) was 9%; on MAPK12 (p38 gamma) (MAPK12 (p38 gamma), 1 µM, ZLYTE, ATP Km app, listed as WEL028, 1 µM) it was 7%; on DCAMKL2 (DCK2) (DCAMKL2 (DCK2), 1 µM, ZLYTE, ATP Km app, listed as WEL028, 1 µM) it was 2%; on MUSK (MUSK, 1 µM, ZLYTE, ATP Km app, listed as WEL028, 1 µM), 33%; at MAP3K19 (YSK4) (MAP3K19 (YSK4), 1 µM, ZLYTE, ATP Km app, listed as WEL028, 1 µM), -1% and 1%. In addition, the inhibition at 1 µM on PKMYT1 (read-out: Inhibition at 1 µM (%), PKMYT1, 1 µM, LanthaScreen Binding) stood at 17%; against MAPK12 (p38 gamma) (setting [1]), 10%; on MAPK12 (p38 gamma) (read-out: Inhibition at 1 µM (%), MAPK12 (p38 gamma), 1 µM, ZLYTE, ATP Km app), 12%; against DCAMKL2 (DCK2) (setting [1]), 3%; at DCAMKL2 (DCK2) (read-out: Inhibition at 1 µM (%), DCAMKL2 (DCK2), 1 µM, ZLYTE, ATP Km app), 4%; against MUSK (setting [1]), 26%. Further, the inhibition at 1 µM was 19% at MUSK (read-out: Inhibition at 1 µM (%), MUSK, 1 µM, ZLYTE, ATP Km app) and 0% against MAP3K19 (YSK4) (setting [1]).
